{"source": "patent US9889108B2", "about": "“Compositions and methods for treating non-alcoholic steatohepatitis” (priority 2013, dated 2018)", "key": {"CYP450": {"tested_on": "CYP450", "conditions": "at free concentrations observed in humans; cited from earlier work"}, "platelets from rats": {"tested_on": "platelets from rats", "assay": "Platelet anti-aggregation, rat platelets", "format": "cell-based"}, "[1]": {"tested_on": "mouse diet-induced hepatic steatosis model", "assay": "Mouse diet-induced hepatic steatosis model", "format": "in vivo", "conditions": "repeat oral administration at ≧0.1 mg/g"}, "platelets from rabbits": {"tested_on": "platelets from rabbits", "assay": "Platelet anti-aggregation, rabbit platelets", "format": "cell-based"}, "hamsters": {"tested_on": "hamsters", "assay": "Lipid lowering in hamsters", "format": "in vivo, hamster"}, "[2]": {"assay": "Excretion of radioactivity after single oral administration (rats)", "format": "in vivo, rat", "description": "(§1) EPADEL is a product containing ethyl all-cis-5,8,11,14,17-eicosapentaenoate (EPA-E), one of the n-3 essential fatty acids. The preclinical absorption, distribution, metabolism and excretion (ADME) characteristics of EPA-E have been determined primarily in rats.\nConsequently, when EPA-E is administered orally to humans, it would appear that it is well absorbed, even though the unchanged ethyl ester form is not detected, and the free form (EPA) is only detected at a very low level, in the blood. Due to this absorption mechanism of essential fatty acids, the administered EPA-E exists as a blood-constituent fatty acid in the total lipids. […] Radioactivity was primarily excreted in expired air (44%) after single oral administration at 30 mg/kg EPA-E with minimal excretion in bile and urine (˜3%) and approximately 20% excreted in feces.\nRenal excretion was the elimination route for several minor highly polar metabolites (<0.4%), but EPA-E, EPA, DPA or DHA were not detected in the urine. In feces, EPA-E and EPA, evidently derived from the unabsorbed drug, were detected; however, no DPA or DHA was detected in the feces."}, "[3]": {"tested_on": "methionine-choline deficient diet rat model of nonalcoholic steatohepatitis", "assay": "Methionine-choline deficient diet rat model of nonalcoholic steatohepatitis", "format": "in vivo", "conditions": "repeat oral administration at 1000 mg/kg; by suppressing inflammation and oxidative stress"}, "platelets from humans": {"tested_on": "platelets from humans", "assay": "Platelet anti-aggregation, human platelets", "format": "cell-based"}, "arteries in rabbits": {"tested_on": "arteries in rabbits", "assay": "Elasticity of arteries in rabbits", "format": "in vivo, rabbit"}, "subjects with NASH": {"tested_on": "subjects with NASH", "assay": "Phase II double blind, placebo-controlled clinical trial of EPA-E in subjects with NASH", "format": "in vivo, human", "parameters": "Efficacy, proportion of responders (NAS Score ≦3 or improvement of ≧2 across at least 2 of NAS components): dose or concentration left out as unconfirmed", "text": "The non-alcoholic fatty liver disease activity score (NAS) is defined as the unweighted sum of the values for steatosis (ranging from 0-3), lobular inflammation (ranging from 0-3) and ballooning (ranging from 0-2), thereby providing a range of NAS score of from 0 to 8. […] Alternatively, patients can show an improvement in NAS by a value of ≧2 across at least two of the NAS components, together with no worsening in fibrosis. Alternatively, patients can show an improvement in NAS score by ≧3, 4, 5, 6, 7 or 8. This example provides the protocol used for an ongoing phase II clinical trial, double blind, placebo-controlled study to investigate the safety, efficacy, and pharmacokinetic profile of two doses of EPA-E in subjects with NASH. Up to 70 subjects were enrolled into each treatment arm, for a total of 210 subjects to be enrolled. Block randomization using an interactive voice response system (IVRS) was used to assign patients in a 1:1:1 ratio to two active doses and placebo. Patients were stratified at randomization by presence or absence of diabetes. Patients with diabetes comprised no more than 25% of the total number of patients enrolled. […] Subjects were required to have a liver biopsy with proven NASH in the 6 month period prior to screening. The Pharmacokinetic profile for EPA-E was evaluated in a subgroup of subjects in specified sites. Subjects were approached prior to providing informed consent to determine if they will participate in the PK group subset. Approximately 36 subjects participated in the PK subset evaluation (12 from each treatment arm, to include 6 males and 6 females). In order to support the trial, EPA-E capsules and matching placebo capsules were prepared. EPA-E capsule is an oval soft gelatin capsule containing 300 mg of EPA-E as an active ingredient. […] These capsules are unidentifiable as EPA-E capsules or placebo capsules. Subjects were administered orally 3 capsules 3 times daily, immediately after meals. 1. Diagnosis of definite NASH by the central reading pathologists: • Liver biopsy slides will be submitted for evaluation by the central pathologists according to one of the following criteria: • a. Previous liver biopsies must have been obtained within 6 months prior to informed consent and should be judged by the local pathologist as showing NAS ≧4 with a minimum score of 1 each for steatosis and lobular inflammation plus […] ballooning OR at least 1a sinusoidal fibrosis AND a finding of possible or definite steatohepatitis • b. For liver biopsies performed after informed consent is obtained, all slides will be submitted for reading by the central pathologists in conformity with the independent pathology review charter (IPRC)"}, "[4]": {"assay": "Absorption, distribution and metabolites after oral 14C-EPA-E in rats", "format": "in vivo, rat", "description": "as §1\nAfter administration of ^14C-EPA-E into the ligated intestine of rats, the residual radioactivity in the intestine at 24 hours was only 4.6% of the administered dose. Radioactivity transferred to the plasma and lymph was mainly detected in the triglyceride (TG) fraction in the early phase after dosing, while distribution to the free fatty acid (FFA) fraction was slight at all timepoints. […] Orally administered EPA-E was primarily incorporated in adrenal gland lipids as cholesterol esters of the fatty acids eicosapentaenoic acid (EPA), docosapentaenoic acid (DPA) and docosahexaenoic acid (DHA).\nAfter oral administration of ^14C-EPA-E to the rat, EPA, DPA and DHA were detected as metabolites in the total lipid fraction of the plasma and tissues (liver, fat, heart and brain). […] In the total lipid fraction of the liver, the radioactivity originated mainly from EPA, DPA and DHA. Thus, it is considered that EPA, DPA and DHA are the predominant metabolites of ^14C-EPA-E in tissues, as constituent fatty acids of the total lipid fraction."}, "rabbits": {"tested_on": "rabbits", "assay": "Lipid lowering in rabbits", "format": "in vivo, rabbit"}, "[5]": {"tested_on": "central nervous, autonomic nervous, respiratory and cardiovascular systems", "assay": "Safety pharmacology studies", "format": "in vivo", "conditions": "oral doses up to 3000 mg/kg"}, "rats": {"tested_on": "rats", "assay": "Lipid lowering in rats", "format": "in vivo, rat"}, "[6]": {"tested_on": "galactosamine-induced steatohepatitis mouse model", "assay": "Galactosamine-induced steatohepatitis mouse model", "format": "in vivo", "conditions": "oral administration at 1000 mg/kg; by suppressing triglyceride accumulation"}}, "data": [{"smiles": "CC/C=C\\C/C=C\\C/C=C\\C/C=C\\C/C=C\\CCCC(=O)O", "note": "[EPA, eicosapentaenoic acid]", "values": [{"measurement": "Inhibition of CYP450", "setting": "CYP450", "result": "unlikely to inhibit"}]}, {"smiles": "CC/C=C\\C/C=C\\C/C=C\\C/C=C\\C/C=C\\CCCC(=O)OCC", "note": "[EPA-E, ethyl all-cis-5,8,11,14,17-eicosapentaenoate]", "values": [{"measurement": "Effect on platelet aggregation", "setting": "platelets from rats", "result": "anti-aggregation effects"}, {"measurement": "Fat accumulation", "setting": "[1]", "result": "suppressed fat accumulation"}, {"measurement": "Hepatic SREBP-1c levels", "setting": "[1]", "result": "suppressing hepatic SREBP-1c levels"}, {"measurement": "Effect on platelet aggregation", "setting": "platelets from rabbits", "result": "anti-aggregation effects"}, {"measurement": "Lipid lowering", "setting": "hamsters", "result": "lower lipids"}, {"measurement": "EPA-E and EPA in feces", "setting": "[2]; derived from the unabsorbed drug, no DPA or DHA detected", "result": "detected"}, {"measurement": "EPA-E, EPA, DPA or DHA in the urine", "setting": "[2]; species not given", "result": "not detected"}, {"measurement": "Fibrosis", "setting": "[3]", "result": "inhibited fibrosis"}, {"measurement": "Effect on platelet aggregation", "setting": "platelets from humans", "result": "anti-aggregation effects"}, {"measurement": "Elasticity of arteries", "setting": "arteries in rabbits", "result": "preserve the elasticity of arteries"}, {"measurement": "Serum EPA/AA ratios, patients with sFas≦9.5 ng/mL versus sFas >9.5 ng/mL", "setting": "subjects with NASH; Day 365, FIG. 21 and FIG. 22", "result": "higher"}, {"measurement": "Response rate", "setting": "subjects with NASH; fasting glucose=<125 mg/dL and HbA1c=<6.4, Study arm 1, FIG. 4", "result": "higher response to rate"}, {"measurement": "Efficacy, response rate", "setting": "subjects with NASH; fasting glucose=<125 mg/dL and HbA1c=<6.4, Study arm 2, FIG. 4", "result": "equivalent to that of Study arm 1"}, {"measurement": "Efficacy, NASH response (change of NAS score)", "setting": "subjects with NASH; patients with GGT levels=<33 IU/L, Study arm 1 and 2, FIG. 9", "result": "higher efficacy"}, {"measurement": "Efficacy, preliminary endpoint achievement rate", "setting": "subjects with NASH; patients with GGT levels=<60 IU/L, Study arm 1 and 2, FIG. 8", "result": "higher efficacy"}, {"measurement": "Efficacy, improvement of serum EPA/AA ratio on Day 365", "setting": "subjects with NASH; patients with GGT ≦33 IU/L, Study arm 2, FIG. 10", "result": "higher efficacy"}, {"measurement": "Efficacy, proportion of responders", "setting": "subjects with NASH; patients with HbA1c=<6.4, Study arm 1, FIG. 2", "result": "higher efficacy"}, {"measurement": "Efficacy, proportion of responders", "setting": "subjects with NASH; patients with HbA1c=<6.4, Study arm 2, FIG. 2", "result": "equivalent to that of Study arm 1"}, {"measurement": "Efficacy, proportion of responders", "setting": "subjects with NASH; patients with NASH risk score equal to or less than 4.0, especially 3.0, 1800 mg EPA-E, TID, FIG. 19", "result": "higher efficacy"}, {"measurement": "Efficacy, proportion of responders", "setting": "subjects with NASH; patients with fasting glucose =<125 mg/dL, Study arm 1, FIG. 3", "result": "higher efficacy"}, {"measurement": "Efficacy, proportion of responders", "setting": "subjects with NASH; patients with fasting glucose =<125 mg/dL, Study arm 2, FIG. 3", "result": "equivalent to that of Study arm 1"}, {"measurement": "Efficacy, proportion of responders", "setting": "subjects with NASH; patients with sFas equal to or less 10.0 ng/mL and/or M30 equal to or less 1500 U/L, 1800 mg EPA-E, TID and 2700 mg EPA-E, TID, FIG. 18", "result": "higher efficacy"}, {"measurement": "Efficacy, proportion of responders", "setting": "subjects with NASH; patients with serum M30 equal to or less 1500 U/L, especially 900 U/L, more especially 500 U/L, 1800 mg EPA-E, TID, FIG. 17", "result": "higher efficacy"}, {"measurement": "Efficacy, proportion of responders", "setting": "subjects with NASH; patients with serum sFas equal to or less 9.5 ng/mL, 1800 mg EPA-E, TID, FIG. 14", "result": "higher efficacy"}, {"measurement": "Efficacy, NASH response (change of NAS score)", "setting": "subjects with NASH; patients with serum sFas equal to or less 9.5 ng/mL, Study arm 1 (1800 mg EPA-E, TID), FIG. 16", "result": "higher efficacy"}, {"measurement": "Efficacy, proportion of responders", "setting": "subjects with NASH; patients with serum sFas equal to or less 10.0 ng/mL, especially 9.5 ng/mL, 1800 mg EPA-E, TID, FIG. 15", "result": "higher efficacy"}, {"measurement": "Efficacy, proportion of responders", "setting": "subjects with NASH; patients without biliary tract disease markers (GGT ≦33 IU/L), Study arm 1 (600 mg TID) and Study arm 2 (900 mg TID), FIG. 7", "result": "higher efficacy"}, {"measurement": "Efficacy, proportion of responders (NAS Score ≦3 or improvement of ≧2 across at least 2 of NAS components)", "setting": "subjects with NASH; patients without diabetes or with mild diabetes compared to diabetic patients, Study arm 1, FIG. 1", "result": "higher efficacy"}, {"measurement": "Efficacy, proportion of responders", "setting": "subjects with NASH; patients without diabetes or with mild diabetes, Study arm 2 (900 mg EPA-E, TID), FIG. 1", "result": "equivalent to that of Study arm 1"}, {"measurement": "Absorption", "setting": "[4]; single oral dose of 14C-EPA-E 30-1000 mg/kg, rats, mainly through the lymphatic route", "result": "well-absorbed"}, {"measurement": "Lipid lowering", "setting": "rabbits", "result": "lower lipids"}, {"measurement": "Effect on central nervous, autonomic nervous, respiratory and cardiovascular systems", "setting": "[5]", "result": "no effect"}, {"measurement": "Lipid lowering", "setting": "rats", "result": "lower lipids"}, {"measurement": "Progression of steatohepatitis", "setting": "[6]", "result": "retarded progression of steatohepatitis"}]}, {"smiles": "CC/C=C\\C/C=C\\C/C=C\\C/C=C\\C/C=C\\CCCC(=O)OCC", "note": "[^14C-EPA-E]", "values": [{"measurement": "Unchanged EPA-E in the plasma or tissues", "setting": "[4]; after oral administration of 14C-EPA-E to the rat, liver, fat, heart and brain", "result": "no unchanged EPA-E was found"}, {"measurement": "Distribution of radioactivity in body tissues", "setting": "[4]; rats, relatively high levels in brown fat, adrenal, liver and pancreas", "result": "widely distributed"}]}]}
